# Measured values as given in PubChem BioAssay AID2305 (GlaxoSmithKline (GSK), 2010).
# System: P. falciparum 3D7 growth, pLDH absorbance
# Assay: P. falciparum 3D7 growth inhibition, dose response, strain 3D7 (AID 2305)
row,SMILES,IC50
1,COc1ccc(NS(=O)(=O)c2ccc(C(=O)Nc3ccc(OC(F)(F)F)cc3)cc2)cc1N1CCN(CC2CC2)CC1,1 µM
2,CC(C)(C)OC(=O)C1CCCN(Cc2ccc(-c3cccc(-c4nc5ccccc5[nH]4)c3)cc2)C1 (configuration not stated),0.36 µM
3,COc1ccc2nccc([C@@H](O)CN3CCC(CO)(NCc4cc5ccccc5o4)CC3)c2c1,1.37 µM
4,COc1cc(F)c2ncc(Cl)c(CCN3CCC(NCc4ccc5c(n4)NC(=O)CS5)CC3)c2c1,0.48 µM
5,CN(C)CC1CCCN1Cc1ccccc1-c1cnn(C)c(=O)c1Oc1ccccc1F (configuration not stated),1.31 µM
6,O=S(=O)(c1cccc2cccnc12)N1CCN(C2CCCCC2)CC1,0.76 µM
7,CCOc1ccc2nc(C)cc(NN=Cc3ccc(Cl)cc3)c2c1,0.76 µM
8,COc1ccc(CNC2CCN(C)CC2)cc1-c1ccc(S(=O)(=O)NC2CCC2)cc1,0.88 µM
9,COc1ccc(S(=O)(=O)NCCC2CCN(CCCCCNC(=O)C=Cc3ccc(Cl)c(Cl)c3)CC2)cc1,0.96 µM
10,O=C(CCCCCNC(=O)c1ccc(O)c(-c2ccc(Cl)c(Cl)c2)c1)NCCN1CCOCC1,0.83 µM
11,CC[C@H](C)CNC(=O)c1ccnc(-c2cccc(CN3CCC(N4CCCC4)CC3)c2)c1,0.85 µM
12,Cc1nc(N)nc(N)c1CCCOc1ccc(Br)cc1,0.49 µM
13,O=C(NC=Nc1cc([N+](=O)[O-])c(-c2ccncc2)n1-c1ccccc1)c1cccc(O)c1,0.33 µM
14,Nc1nc(N)c2c(Oc3cccc4ccccc34)cccc2n1,1.01 µM
15,Cc1ccc(O)cc1Nc1ccnc2cc(-c3cccc(CNCCS(C)(=O)=O)c3)ccc12,0.84 µM
16,CCCC(C)Nc1nc(C)cc(N[C@@H](CC(C)C)C(=O)NCc2cccc(F)c2)n1 (some centres not stated),1 µM
17,COCCNCc1ccc(-c2cccc(CNC3CCN(Cc4ccccc4)CC3)c2)cc1,0.33 µM
18,CC(=O)Nc1ccc(C(=O)Nc2cccc(-c3csc(-c4nc5ccccc5[nH]4)c3)c2)cn1,0.12 µM
19,Cc1cc(NC(=O)Nc2ccc3ncccc3c2)c2ccccc2n1,0.96 µM
20,Cn1c2c(c3ccccc31)CN(CCC1(c3ccc(Cl)c(Cl)c3)CN(C(=O)c3ccccc3)CCO1)CC2 (configuration not stated),0.31 µM
21,CC1CC(NCCCNc2cc(=O)c3ccccc3[nH]2)c2cc(Cl)c(Cl)c(Cl)c21 (configuration not stated),0.72 µM
22,Cc1ccc(N2C(=O)C3C(C2=O)[C@]2(c4ccccc4)C(=O)[C@@]3(c3ccccc3)C(c3ccccc3)=C2c2ccccc2)cc1 (some centres not stated),0.87 µM
23,c1ccc2oc(-c3cc4ccncc4cc3OC3CCNCC3)cc2c1,1.47 µM

row,SMILES,IC50
1,Cc1cc2c(cc1Cl)N(C(=O)Nc1cc(F)cc(-c3cncnc3)c1)CC2,0.38 µM
2,Cc1ccc2c(NN=Cc3cccc(Cl)c3)cc(C)nc2c1,0.95 µM
3,N#CC(c1ccc(Cl)cc1)c1ccc2c(C(F)(F)F)cc(C(F)(F)F)nc2n1 (configuration not stated),1.01 µM
4,Fc1cc(CN2CCCC2)ccc1OCCCN1CCN(c2cccc(Cl)c2Cl)CC1,1.04 µM
5,O=[N+]([O-])c1cccc(CNCC2CCN(Cc3ccc(O)cc3)CC2)c1,0.67 µM
6,COC(=O)CCCCOc1cc(Cc2cnc(N)nc2N)cc(OC)c1OC,0.17 µM
7,CN(Cc1ccc(C#N)cc1)C1CCN(c2cc(NC(=O)c3ccc(F)cc3)ccn2)CC1,1.43 µM
8,Cc1cc2ccccc2n1CC(=O)N1CC(C(=O)N2CCCCC2)Oc2ccccc21 (configuration not stated),0.9 µM
9,COc1ccc2ccccc2c1C=NNc1ccnc2ccc(F)cc12,1.11 µM
10,COc1cc(Nc2ncnc3cc(OC)c(OC)cc23)cc([N+](=O)[O-])c1,0.81 µM
11,Cc1ccc(S(C)(=O)=O)cc1/C=C/C(=O)O,0.87 µM
12,COc1ccccc1/C=C/C(=O)N(C)C1CCN(CCCCCNC(=O)/C=C/c2ccc(Cl)c(Cl)c2)CC1,0.44 µM
13,Cc1cccc2[nH]c(-c3cccc(-c4cccc(C(=O)NCc5nccn5C)c4)c3)nc12,0.53 µM
14,COc1ccc(Cn2c(Nc3cccc(C(F)(F)F)c3)nc3cc(C(=O)NC4CC4)cnc32)cc1Cl,0.73 µM
15,O=C(Nc1cccc(C(F)(F)F)c1)Nc1ccc(Cl)c(Cl)c1,0.74 µM
16,CCN(CC)CCOc1cc2c(cc1Br)-c1cc(Br)c(OCCN(CC)CC)cc1C2=NO,1.09 µM
17,CC1CCCCN1S(=O)(=O)c1ccc(NC(=O)c2cc(-c3ccccc3O)n[nH]2)cc1 (configuration not stated),0.76 µM
18,COc1cccc(C2CCN(CCN3CCC(NC(=O)c4ccc(-c5ccc(Cl)cc5)cc4)CC3)CC2)c1,1.09 µM
19,Cc1noc(C)c1-c1cccc(CNCc2cccc(-c3ccc(-c4nc5ccc(C(F)(F)F)cc5[nH]4)s3)c2)c1,0.17 µM
20,O=C(NCC(CCN1CCC(c2c[nH]c3ccccc23)CC1)c1ccccc1)Nc1ccc(Cl)c(Cl)c1 (configuration not stated),0.83 µM
21,O=C(Nc1cccc(CN2CCCN(Cc3cccc(Cl)c3)CC2)c1)c1ccc(Cl)c(Cl)c1,0.99 µM
22,Cc1cccc2[nH]c(-c3cccc(-c4cccc(NC(=O)CNC(=O)c5ccc(O)cc5)c4)c3)nc12,0.99 µM
23,O=C(NCCc1cccc(F)c1)c1cc(Br)cc(N2CCN(c3ccncc3)CC2)c1,0.76 µM

row,SMILES,IC50
1,Oc1ccc(CCNc2nc(NCCOc3cccc4ccccc34)nc(N3CCNCC3)n2)cc1,0.9 µM
2,CCCC1N=C(N)N=C(N)N1c1ccc(C)cc1 (configuration not stated),0.1 µM
3,COc1ccc(C(=O)CCC(=O)N(CCC2CCCN2C)Cc2ccc(-c3ccc(CNCCc4ccc(S(C)(=O)=O)cc4)cn3)cc2)cc1F (configuration not stated),0.87 µM
4,O=C(/C=C/c1ccc(Cl)c(Cl)c1)NCCCCCCN1CCCN(C(=O)Nc2ccc(F)c(F)c2)CC1,1.24 µM
5,O=C(Nc1cccc(-c2cccc(-c3nc4ccc(F)cc4[nH]3)c2)c1)Nc1ccc2c(c1)OCO2,0.14 µM
6,O=C(/C=C/c1ccc(Cl)c(Cl)c1)NCC1CCC(N2CCC(c3c[nH]c4ccccc34)CC2)CC1 (configuration not stated),0.17 µM
7,CCC(C)NS(=O)(=O)c1ccc2nc(Nc3ccc(C)c(Cl)c3)n(C(C)C(C)C)c2c1 (configuration not stated),0.38 µM
8,CS(=O)(=O)c1ccc2nc(-c3cc(-c4cccc(F)c4)cnc3N)[nH]c2c1,1.09 µM
9,CC(=O)Nc1cccc(C(=O)Nc2ccc(-c3cccc(-c4nc5ccc(C(F)(F)F)cc5[nH]4)c3)cc2)c1,0.15 µM
10,Cc1cccc(NC(=O)Nc2ccc(I)c(OCCN(C)C)c2)c1C,0.73 µM
11,NC(N)=Nc1nc(-c2cccc(NC(=O)NCc3ccc(OC(F)(F)F)cc3)c2)cs1,0.7 µM
12,Cc1cc(N(C)C)nc(Nc2ccc(NC(=O)c3c(F)cccc3F)cc2)n1,1.38 µM
13,CCc1ccc(CN2CCC(NC(=O)c3ccc(-c4ccccc4F)s3)CC2)cc1,1.49 µM
14,COc1ccc(C[C@@H](N)C(=O)N[C@H]2[C@@H](O)[C@H](n3cnc4c(N(C)C)ncnc43)O[C@@H]2CO)cc1,0.17 µM
15,CCN(CC)CCCC(C)Nc1cc(C=Cc2ccccc2Cl)nc2cc(Cl)ccc12 (configuration not stated),0.8 µM
16,CC(Oc1ccc(Cl)cc1Cl)c1nc(-c2ccc(NC(=O)c3ccco3)cc2)no1 (configuration not stated),0.9 µM
17,CCn1c2ccccc2c2cc(C=NNc3cc(C)nc4ccccc34)ccc21,0.31 µM
18,O=C(Nc1cccc(Cl)c1)c1cnc(N2CCN(c3ccncc3)CC2)c(Cl)c1,0.96 µM
19,COc1ccc2ncc(F)c(CCN3CCC(NCc4cnc5c(c4)NC(=O)CS5)CC3)c2c1,0.57 µM
20,Cn1nc(-c2ccc(CN[C@@H]3CCc4ccc(O)cc43)cc2)c2cnc(NC3CCCC3)nc21,1.12 µM
21,COc1ccc2ncc(F)c([C@H](O)CN3CCC(NCc4ccc5c(c4)OCCO5)CC3)c2c1,0.15 µM
22,CC(C)(C)c1ccc(Cn2c(=N)n(CC(=O)c3ccc(-c4ccccc4)cc3)c3ccccc32)cc1,0.16 µM
23,Cc1ccccc1C1CCN(C2CCC(NC(=O)c3cc4cc(C(C)C)ccc4[nH]3)CC2)CC1 (configuration not stated),0.69 µM

row,SMILES,IC50
1,CCN(CC)CCN(Cc1ccc(-c2ccc(Cl)cc2)cc1)C(=O)Cn1c(CCc2cccc(F)c2F)nc(=O)c2ccccc21,0.77 µM
2,COc1cc(NC(=O)c2c(-c3c(F)cccc3Cl)noc2C)c(OC)cc1Cl,0.86 µM
3,CCc1[nH]nc(C(=O)NC2CCN(CC3(c4ccc(OC)cc4)CCCCC3)CC2)c1C,0.89 µM
4,Cc1cccc2[nH]cc(C3CCN(CC4CCC(NC(=O)/C=C/c5ccc(Cl)c(Cl)c5)CC4)CC3)c12 (configuration not stated),0.16 µM
5,Cc1ccc2[nH]c3ccccc3c(=O)c2c1,0.86 µM
6,CC(C)(C)OC(=O)NCc1ccc(Nc2nnc(-c3cccc(OCC(=O)NCc4cc(C(F)(F)F)cc(C(F)(F)F)c4)c3)o2)cc1,0.83 µM
7,O=C(N[C@H]1CCN(Cc2ccc(OCCN3CCNCC3)c3ccccc23)C1)c1ccc(Cl)c(Cl)c1,0.75 µM
8,COc1ccc(-c2cccc(NC(=O)c3cccc(C#N)c3)c2)cc1CN(C)CCN(C)C,0.31 µM
9,CC(C)OCCCNC(=O)c1nc(-c2cccc(C(F)(F)F)c2)sc1C(C)C,1.16 µM
10,COC(=O)c1cccc(C#CCCOCCCCCCNC[C@H](O)c2cc(Cl)c(N)c(Cl)c2)c1,0.77 µM
11,CCCc1cc(NCC)nc(Nc2ccc(C)cc2)n1,0.89 µM
12,OC(CNCc1ccccc1)c1cc(OCc2ccccc2)cc(OCc2ccccc2)c1 (configuration not stated),1 µM
13,Cc1cc(NCC2CCN(CC3CCCCC3)C2)nc(Nc2ccc(Br)cc2)n1 (configuration not stated),0.88 µM
14,COc1cc(O)c2c(=O)c(OC)c(-c3cccc(Cl)c3OCC(=O)O)oc2c1OC,0.59 µM
15,COc1cc(Nc2nccc(NCC(O)c3ccc(C(F)(F)F)cc3)n2)cc(OC)c1OC (configuration not stated),0.92 µM
16,N#Cc1ccc(N2CCN(Cc3cccc(-c4ccc(-c5nc6ccc(C(F)(F)F)cc6[nH]5)s4)c3)CC2)nc1,1.04 µM
17,CCC(CC)CN1C(=O)C(c2ccccc2)(c2ccccc2)N=C1N,0.97 µM
18,COc1ccc(NC(=O)NC2CCN(c3ccnc4cc(Cl)ccc34)C2)cc1 (configuration not stated),0.1 µM
19,CCN(CC)CCN(Cc1ccc(-c2ccc(C(F)(F)F)cc2)cc1)C(=O)Cn1c(CCc2cc(F)c(F)cc2F)nc(=O)c2ccccc21,0.72 µM
20,CN(C(=O)C1(c2ccc(Cl)cc2)CC1)C1CCN(CCCCCNC(=O)/C=C/c2ccc(Cl)c(Cl)c2)CC1,0.77 µM
21,CC(=O)Nc1nc(C(=O)Nc2cccc(-c3ccc4c(cnn4CC4CC4)c3)c2)cs1,0.74 µM
22,Cc1[nH]c(C)c(Cc2ccc(Oc3ccc(OC(F)(F)F)cc3)cc2)c(=O)c1Br,0.69 µM
23,Cc1cccc2[nH]c(-c3cccc(-c4cccc(NC(=O)Nc5ccsc5)c4)c3)nc12,0.17 µM
